The source of these data is article PMC9599641, “TNP Analogues Inhibit the Virulence Promoting IP3-4 Kinase Arg1 in the Fungal Pathogen Cryptococcus neoformans” (Biomolecules, 2022).

Structures are written as SMILES. “Also recorded” adds a separate entry of the source. Where two headings read alike, the source gives them in different places.

Series [1] addresses CnArg1 (IP3-4K from C. neoformans) (Cryptococcus neoformans var. grubii, UniProt J9W3G0). Nature of the series: Kinase-Glo enzyme inhibition assay, recombinant CnArg1. As to conditions: 10 µM ATP, 50 µM IP3, 2.5 ng/µL enzyme, 10 min, room temperature, 5% DMSO; mean ± SEM. Format: biochemical. Here is the method: (§1) The 2,6-disubstituted purine compounds are ATP-competitive IPK inhibitors. […] The amount of IP3 and kinase used for each recombinant enzyme was determined following the manufacturer’s instructions, and this concentration was used to assess the inhibitory properties of TNP analogues against each of the recombinant enzymes.
(§2) The analogues were dissolved in DMSO. For the assay, the inhibitors were added to the reaction mixture to achieve a final concentration of 50 µM in 5% DMSO (1:20 dilution). To achieve inhibitor concentrations lower than 50 µM in the assay, the inhibitor stock was first serially diluted two-fold in DMSO and added to the reaction mixture, to achieve concentrations ranging between 0.8 μM and 50 µM in 5% DMSO. Once all analogues and their dilution series had been added, the reaction was started by adding an optimal amount of recombinant IP3-4K enzyme. The reaction was stopped after 10-min incubation at room temperature by adding a 50 µL of Kinase-Glo® reagent. The mixture was incubated at room temperature in the dark for 10–15 min. Luminescence (RLU) was measured using a SpectraMax iD5 and an integration time of 0.5 s. Percent enzyme activity was defined as (RLUnegative − RLUsample)/(RLUnegative − RLUpositive) × 100. ‘Positive’ refers to 100% enzyme activity (no inhibitor used as the positive control), while ‘negative’ refers to 0% enzyme activity (no enzyme used as the negative control).
(§3) Next, we determined the inhibitory properties of TNP. TNP is an ATP-competitive inhibitor [34]. […] IP3 and enzyme concentrations were also optimised following the manufacturer’s instructions. […] This optimal amount of IP3 was then used to test varying concentrations of the kinase ranging from 0 to 20 ng/µL. The amount of kinase that produced luminescence values in the linear range of the kinase titration curve was deemed to be the optimal kinase amount.

The target in series [2] is T1, HsIPMK (Homo sapiens, UniProt Q8NFU5). Put plainly: Kinase-Glo enzyme inhibition assay, recombinant HsIPMK. Further: 6 ng/µL enzyme. Format: biochemical. Also noted: GST (N, cleaved yes); made in house; host or cells: E. coli BL21 (DE3); plasmid made by GenScript. How it is done: as §1, §2, §3
T1 sequence (Q8NFU5 whole entry): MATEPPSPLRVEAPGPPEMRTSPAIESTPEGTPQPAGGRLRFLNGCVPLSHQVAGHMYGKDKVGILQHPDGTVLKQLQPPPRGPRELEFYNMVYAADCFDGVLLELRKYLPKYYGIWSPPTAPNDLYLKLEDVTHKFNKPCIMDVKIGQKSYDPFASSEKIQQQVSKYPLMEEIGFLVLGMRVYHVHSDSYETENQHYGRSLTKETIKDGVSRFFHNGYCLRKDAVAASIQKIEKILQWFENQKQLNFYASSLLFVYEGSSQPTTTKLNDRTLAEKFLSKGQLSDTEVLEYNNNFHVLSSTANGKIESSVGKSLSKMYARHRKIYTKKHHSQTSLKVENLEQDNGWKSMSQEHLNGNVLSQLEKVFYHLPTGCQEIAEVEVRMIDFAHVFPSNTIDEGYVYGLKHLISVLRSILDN
For series [3], the system named is CnArg1 (IP3-4K from C. neoformans). Nature of the series: Kinase-Glo enzyme inhibition assay, recombinant CnArg1. The format is biochemical. As to conditions: selectivity, ratio higher than 1 = more selective for CnArg1. Here is the method:
as §1, §2, §3

Series [4] in a line: Solubility observations. Format: physicochemical. As to conditions: for Solubility in enzyme assay conditions: 5% DMSO.
Series [5] deals with rat IPMK. The arrangement: method as in PMID 24670057. As to conditions: read-out: Km of rat IPMK for ATP; IP3 used as the substrate; cited from earlier work.
The target in series [6] is T1, HsIPMK. As to conditions: 200 µM IP3, ATP 25–400 µM. How it is done: (§4) The kinetic properties of the purified recombinant enzymes were determined and compared using a Kinase-Glo® Max Luminescent Kinase Assay kit (Promega, Madison, WI, USA) in a reaction buffer consisting of 20 mM HEPES pH 6.8, 100 mM NaCl, 6 mM MgCl2, 20 µg/mL BSA, 1 mM DTT [14]. The IP3 concentration was fixed at 200 µM. The ATP starting concentrations ranged between 25 µM to 400 µM and the ATP remaining after up to 10-min reaction time was assessed by adding Kinase-Glo® reagent. An ATP standard curve (0–500 µM) was also generated using the same kit. The ATP concentration remaining was measured as luminescence using a SpectraMax iD5 plate reader. The relative luminescence unit (RLU) was converted to ATP concentration using the ATP standard curve. The reaction velocity was calculated for each starting ATP concentration and the data was fitted to the Michaelis-Menten equation using GraphPad Prism 9 to obtain Vmax and Km values.

The target in series [7] is CaIpk2 (Candida albicans, UniProt Q59YE9). As to conditions: 200 µM IP3, ATP 25–400 µM. Here is the method: as §4
Sequence of CaIpk2 (Q59YE9 1-350): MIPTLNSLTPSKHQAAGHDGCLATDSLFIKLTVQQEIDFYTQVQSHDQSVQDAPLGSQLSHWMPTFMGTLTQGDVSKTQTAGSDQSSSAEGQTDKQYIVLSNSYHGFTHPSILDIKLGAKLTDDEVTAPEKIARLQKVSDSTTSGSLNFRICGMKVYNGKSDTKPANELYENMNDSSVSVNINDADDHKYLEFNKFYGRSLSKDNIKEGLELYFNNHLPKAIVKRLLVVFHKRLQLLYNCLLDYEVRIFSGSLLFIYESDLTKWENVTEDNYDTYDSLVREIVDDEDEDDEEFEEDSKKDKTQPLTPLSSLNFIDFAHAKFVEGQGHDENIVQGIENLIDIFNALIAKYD
Series [8] deals with T1, HsIPMK. As to conditions: read-out: Km for ATP, HsIPMK, cited from earlier work.

Sequence of CnArg1 (IP3-4K from C. neoformans) (Cryptococcus neoformans var. grubii, UniProt J9W3G0) (J9W3G0 entry or part of it): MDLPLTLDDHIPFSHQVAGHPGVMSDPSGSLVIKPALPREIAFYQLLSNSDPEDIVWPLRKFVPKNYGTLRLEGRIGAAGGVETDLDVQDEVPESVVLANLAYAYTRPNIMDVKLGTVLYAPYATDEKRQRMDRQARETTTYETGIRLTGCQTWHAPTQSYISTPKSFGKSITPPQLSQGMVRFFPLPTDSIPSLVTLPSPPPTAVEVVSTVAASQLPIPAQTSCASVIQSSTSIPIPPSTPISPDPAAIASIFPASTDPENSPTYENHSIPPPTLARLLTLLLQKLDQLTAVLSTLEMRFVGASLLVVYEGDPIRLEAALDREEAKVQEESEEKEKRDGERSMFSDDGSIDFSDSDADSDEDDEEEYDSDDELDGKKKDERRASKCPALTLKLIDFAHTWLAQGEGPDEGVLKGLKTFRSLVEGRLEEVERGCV

On to `Brc1cccc(CNc2nc(NCc3ccccc3)c3nc[nH]c3n2)c1` [Compound 14], for which the IC50 in series [1] was found to be 44 ± 2 µM. `COc1ccc(CNc2nc(NCc3cccc(C(F)(F)F)c3)nc3[nH]cnc23)cc1` [Compound 44]: the IC50 in series [1] came out at 82 ± 13 µM. As to `c1ccc(CNc2nc(NCc3ncccn3)nc3[nH]cnc23)cc1` [Compound 25], the “CnArg1 IC50” value in series [1] is “Not inhibitory”. `COCCNc1nc(NCc2ccc(OC)cc2)nc2[nH]cnc12` [Compound 38]: the half-maximal inhibitory concentration (IC50) in series [1] is 44 ± 6 µM. With `CC(C)n1cnc2c(NCc3ccccc3)nc(NCc3cccc(C(F)(F)F)c3)nc21` [Compound 45], the “CnArg1 IC50” value in series [1] was “did not have any inhibitory activity”.

Regarding `FC(F)(F)Oc1ccccc1CNc1nc(NCc2ccccc2)c2nc[nH]c2n1` [Compound 21], the IC50 in series [1] was 57 ± 6 µM.

As to `c1ccc(CNc2nc(NCC3CCOCC3)nc3[nH]cnc23)cc1` [Compound 27], the values for the IC50 in series [2] and in series [1] were 123 ± 80 µM and 35 ± 2 µM, respectively. Besides, the “HsIPMK/CnArg1 IC50 ratio” value in series [3] is reported as 3.5.

In the case of `FC(F)(F)c1cccc(CNc2nc(NC3CCOCC3)c3nc[nH]c3n2)c1` [Compound 42], in series [3], the “HsIPMK/CnArg1 IC50 ratio” value amounted to 3.7.

As for `COCCNc1nc(NCc2cccc(C(=O)OC)c2)nc2[nH]cnc12` [Compound 33], the concentration for half-maximal inhibition (IC50) in series [2] was found to be 144 ± 55 µM; in series [1] it was 38 ± 5 µM. Also, the “HsIPMK/CnArg1 IC50 ratio” value in series [3] is reported as 3.8. For `OCCNc1nc(NCc2ccccc2)c2[nH]cnc2n1` [Compound 28], the IC50 in series [1] was 127 ± 32 µM. `FC(F)(F)c1ccccc1CNc1nc(NCc2ccccc2)c2nc[nH]c2n1` [Compound 18]: in series [4], the “Solubility in enzyme assay conditions” value is on record as “poorly soluble; also recorded: Low solubility—ND”. In the case of `COCCNc1nc(NCc2cccc(Br)c2)nc2c1ncn2C` [Compound 46], the “CnArg1 IC50” value in series [1] is reported as “did not have any inhibitory activity”. For `COCCNc1nc(Nc2ccc(OC)cc2)nc2[nH]cnc12` [Compound 40], the IC50 in series [2] stood at 5 ± 1 µM; in series [1], 14 ± 1 µM. In series [3], the “HsIPMK/CnArg1 IC50 ratio” value was determined as 0.4. As for `COCCNc1nc(NCc2cccc(Br)c2)nc2[nH]cnc12` [Compound 31], the IC50 is 43 ± 4 µM in series [2] and 29 ± 3 µM in series [1]. Besides, in series [3], the “HsIPMK/CnArg1 IC50 ratio” value is given as 1.5. On the same counts, the results for `COc1ccccc1CNc1nc(NCc2ccccc2)c2nc[nH]c2n1` [Compound 24] are 89 ± 9 µM, 24 ± 1 µM and 3.7. For `FC(F)(F)c1cccc(CNc2nc(NCc3cccnc3)c3nc[nH]c3n2)c1` [Compound 43] the same measures were 75 ± 8 µM, 27 ± 2 µM and 2.8. As for `FC(F)(F)Oc1ccc(CNc2nc(NCc3ccccc3)c3nc[nH]c3n2)cc1` [Compound 22], the “CnArg1 IC50” value in series [1] is reported as “Not inhibitory”. Still for that read-out and setting: in the case of `Cn1ccnc1CNc1nc(NCc2ccccc2)c2nc[nH]c2n1` [Compound 26] it was “Not inhibitory”.

With `FC(F)(F)c1cccc(CNc2nc(N3CCOCC3)c3nc[nH]c3n2)c1` [Compound 41], the half-maximal inhibitory concentration (IC50) in series [2] was found to be 82 ± 9 µM; in series [1], 24 ± 1 µM. Further, in series [3], the “HsIPMK/CnArg1 IC50 ratio” value worked out at 3.4. For the molecule `COCCNc1nc(NCc2cccc(C(F)(F)F)c2)nc2[nH]cnc12` [Compound 30], the “HsIPMK/CnArg1 IC50 ratio” value in series [3] stood at 2.4. Turning to `Nc1ncnc2c1ncn2[C@@H]1O[C@H](COP(=O)(O)OP(=O)(O)OP(=O)(O)O)[C@@H](O)[C@H]1O` [ATP], the Km was 64 µM in series [5]; 128 ± 35 µM in series [6] (read-out: Km for ATP, HsIPMK, mean ± SEM); 10 µM in series [8] (IP4 used as the substrate); 61 ± 6 µM in series [8] (PIP2 used as the substrate). Besides, the “Vmax, HsIPMK” value in series [6] is listed as 0.6 ± 0.07 µmol ATP/mg protein/min. For the same molecule, the “Vmax, CaIpk2” value in series [7] came out at 21 ± 3 µmol ATP/mg protein/min. Take `COCCNc1nc(NCc2ccccc2)c2nc[nH]c2n1` [Compound 29]: in series [1], the concentration for half-maximal inhibition (IC50) amounted to 75 ± 9 µM. In the case of `FC(F)(F)Oc1ccccc1CNc1nc(NCc2ccccc2)c2nc[nH]c2n1` [Compound 20], the IC50 in series [1] was 71 ± 12 µM. For `FC(F)Oc1cccc(CNc2nc(NCc3ccccc3)c3nc[nH]c3n2)c1` [Compound 10], the IC50 in series [2] amounted to 55 ± 2 µM; in series [1], 20 ± 1 µM. The “HsIPMK/CnArg1 IC50 ratio” value in series [3] is 2.8. For the molecule `COCCNc1nc(NCc2cccc(O)c2)nc2[nH]cnc12` [Compound 36], the IC50 in series [1] turned out to be 55 ± 6 µM. As to `COc1cccc(CNc2nc(NCc3ccccc3)c3nc[nH]c3n2)c1` [Compound 13], in series [3], the “HsIPMK/CnArg1 IC50 ratio” value is 6.0. For the molecule `NCc1cccc(CNc2nc(NCc3ccccc3)c3[nH]cnc3n2)c1` [Compound 15], in series [1], the half-inhibitory concentration (IC50) worked out at 46 ± 22 µM.

As to `FC(F)(F)c1cccc(CNc2nc(NCc3ccccc3)c3nc[nH]c3n2)c1` [Compound 9], the values for the IC50 in series [2] and in series [1] were 32 ± 3 µM and 28 ± 7 µM, respectively. Further, the “HsIPMK/CnArg1 IC50 ratio” value in series [3] stood at 1.1. The “Solubility in SPR analysis” value in series [4] (SPR running buffer with 5% DMSO, KD could not be determined) was “Poor solubility—ND”. `COCCNc1nc(NCc2cccnc2)nc2[nH]cnc12` [Compound 35]: in series [1], the IC50 amounted to 87 ± 9 µM. Consider `COCCNc1nc(NCCc2ccc(OC)cc2)nc2[nH]cnc12` [Compound 39], for which the figures for the IC50 in series [2] and in series [1] were 19 ± 1 µM and 22 ± 3 µM, respectively. Also, in series [3], the “HsIPMK/CnArg1 IC50 ratio” value was 0.9. For `COCCNc1nc(NCc2cccc(I)c2)nc2[nH]cnc12` [Compound 32] the same measures were 48 ± 3 µM, 12 ± 1 µM and 4.0. Take `O=C(O)c1cccc(CNc2nc(NCc3ccccc3)c3nc[nH]c3n2)c1` [Compound 17]: the IC50 in series [1] turned out to be 45 ± 3 µM. For `FC(F)(F)Oc1cccc(CNc2nc(NCc3ccccc3)c3nc[nH]c3n2)c1` [Compound 12], the IC50 in series [1] worked out at 77 ± 14 µM. On to `Fc1ccc(CNc2nc(NCc3ccccc3)c3nc[nH]c3n2)cc1` [Compound 23], for which the values for the half-maximal inhibitory concentration (IC50) in series [2] and in series [1] were 55 ± 4 µM and 21 ± 1 µM, respectively. The “HsIPMK/CnArg1 IC50 ratio” value in series [3] came out at 2.6. For the molecule `Cc1cccc(CNc2nc(NCc3ccccc3)c3nc[nH]c3n2)c1` [Compound 11], the “Solubility in enzyme assay conditions” value in series [4] is on record as “poorly soluble; also recorded: Low solubility—ND”.

In the case of `COCCNc1nc(NCc2cccc(C(=O)O)c2)nc2[nH]cnc12` [Compound 34], in series [1], the “CnArg1 IC50” value is given as “Not inhibitory”. Consider `FC(F)(F)c1ccc(CNc2nc(NCc3ccccc3)c3nc[nH]c3n2)cc1` [Compound 19], for which the “Solubility in enzyme assay conditions” value in series [4] is on record as “poorly soluble; also recorded: Low solubility—ND”. Turning to `COC(=O)c1cccc(CNc2nc(NCc3ccccc3)c3nc[nH]c3n2)c1` [Compound 16], the IC50 in series [2] amounted to 48 ± 2 µM; in series [1], 14 ± 1 µM. Besides, in series [3], the “HsIPMK/CnArg1 IC50 ratio” value was found to be 3.4.
